Measurements reported in patent US6509163B1, “Methods of screening modulators of mammalian P2X7 purinergic receptors” (Glaxo Group Limited, priority 1997, dated 2003).

Biological target: T1, h-rP2X7 (human 1-346, rat 347-595) (Homo sapiens, UniProt Q99572, A348T/A433Q/A445S/A505Q/C493A/C552S/D356N/D438E/D448H/D537E/D539E/E585Q/F350C/F353L/F525L/G559V/H366R/H491R/H521E/I367V/I459M/K464I/K501R/L354I/L516I/M434T/N361T/N413D/P443S/Q375E/R410W/R419K/R463Q/R514S/R544K/R576K/S359A/S390P/S407P/S481N/S490N/S540A/S584T/S593Y/T437L/T449S/T467V/T541I/V378A/V475D/V522A/V538G/W370S)
T1 construct: h-rP2X7 (human 1-346, rat 347-595); expressed in transfected cells; host or cells: HEK293 (transient)
T1 sequence (Q99572 1-595 A348T/F350C/F353L/L354I/D356N/S359A/N361T/H366R/I367V/W370S/Q375E/V378A/S390P/S407P/R410W/N413D/R419K/A433Q/M434T/T437L/D438E/P443S/A445S/D448H/T449S/I459M/R463Q/K464I/T467V/V475D/S481N/S490N/H491R/C493A/K501R/A505Q/R514S/L516I/H521E/V522A/F525L/D537E/V538G/D539E/S540A/T541I/R544K/C552S/G559V/R576K/S584T/E585Q/S593Y): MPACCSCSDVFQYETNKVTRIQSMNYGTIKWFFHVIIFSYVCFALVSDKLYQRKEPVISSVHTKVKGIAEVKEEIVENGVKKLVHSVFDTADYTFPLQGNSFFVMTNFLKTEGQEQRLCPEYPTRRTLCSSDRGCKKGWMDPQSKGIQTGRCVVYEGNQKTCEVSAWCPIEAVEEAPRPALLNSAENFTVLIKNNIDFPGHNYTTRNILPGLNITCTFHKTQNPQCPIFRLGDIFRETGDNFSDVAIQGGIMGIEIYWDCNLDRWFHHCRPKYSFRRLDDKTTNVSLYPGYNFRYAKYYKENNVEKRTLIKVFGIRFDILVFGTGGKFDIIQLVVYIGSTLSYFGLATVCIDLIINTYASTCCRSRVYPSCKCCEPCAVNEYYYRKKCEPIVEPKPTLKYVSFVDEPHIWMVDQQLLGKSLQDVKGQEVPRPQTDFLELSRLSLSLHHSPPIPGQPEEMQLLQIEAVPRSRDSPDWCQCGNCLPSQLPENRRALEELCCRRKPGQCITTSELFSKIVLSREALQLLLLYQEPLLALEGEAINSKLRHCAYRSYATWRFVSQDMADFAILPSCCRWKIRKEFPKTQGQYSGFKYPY
Experiment: Whole-cell recordings in HEK293 cells expressing chimeric h-rP2X7 receptors
Type: cell-based
Conditions: low divalent concentrations, after removal of BzATP, n=10
From the text: Chimeras. A silent restriction site (NheI) was introduced at the equivalent positions in the rat and human cDNAs using the Pfu mutagenesis kit (Stratagene) (T to G at 1069 in rP2X7; G to A at 1072 in hP2X7) . A NheI-XhoI fragment corresponding to 3′ extremity of each cDNA was then excised and subcloned in the opposite plasmid (i.e. human 3′ end into rat background). The resulting chimeras were h-rP2X7 (human 1-346, rat 347-595) and r-hP2X7 (rat 1-346, human 347-595) (FIG. 5). All constructions were sequenced on their entire coding region.
Cell culture. HEK293 cells were transiently transfected with cDNA (1 μg/ml) and lipofectin dissolved in Optimem (GIBCO) placed into petri dishes containing four coverslips onto which cells were plated at a density of about 8×10^4/coverslip. Cells were washed 5 h later and normal DMEM applied. Electrophysiological studies or dye uptake measurements were carried out 18-49 h later. For each set of transfections, parallel experiments were performed on HEK cells transfected with cDNA encoding both rP2X7 and hP2X7 receptors.
Electrophysiological experiments. Whole-cell recordings were made using the EPC9 patch-clamp amplifier and Pulse acquisition programs (HEKA, Lambrecht, Germany). Patch pipettes (5-7 MΩ) contained (mM) CsCl or NaCl 154, EGTA 10, HEPES 5. […]

- current measured at 30 s, of peak: 70±4
SMILES: Nc1ncnc2c1ncn2[C@@H]1O[C@H](COP(=O)(O)OP(=O)(O)OP(=O)(O)O)[C@@H](OC(=O)c2ccc(C(=O)c3ccccc3)cc2)[C@H]1O [BzATP, 3′-O-(4-benzoyl)benzoyl ATP]
